According to PubChem BioAssay (NCI):
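Values below derive from 48-hour exposures of cells grown in 96-well plates, with endpoints linearly interpolated between the two concentrations bracketing the appropriate inhibition level. TGI: concentration producing complete growth inhibition.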

Key:
Assay in all cases: NCI tumour cell line growth inhibition, 48 h
786-0 renal = system: 786-0 renal
DMS 114 small cell lung = system: DMS 114 small cell lung
DMS 273 small cell lung = system: DMS 273 small cell lung
EKVX NSCLC = system: EKVX NSCLC
KM20L2 colon = system: KM20L2 colon
NCI-H460 lung = system: NCI-H460 lung
RXF 393 renal = system: RXF 393 renal
SNB-75 CNS = system: SNB-75 CNS
T-47D breast = system: T-47D breast
UACC-257 melanoma = system: UACC-257 melanoma
RPMI-8226 leukemia = system: RPMI-8226 leukemia

COc1cccc2c1C(=O)c1c(O)c3c(c(O)c1C2=O)C[C@@](O)(C(=O)CO)CC3OC1CC(O)C(O)C(C)O1 (stereo partly drawn)
TGI (786-0 renal): 12.5 µM
TGI (DMS 114 small cell lung): 0.958 µM
TGI (DMS 273 small cell lung): 0.4 µM
TGI (EKVX NSCLC): 7.49 µM
TGI (KM20L2 colon): 6.28 µM
TGI (NCI-H460 lung): 1.8 µM
TGI (RXF 393 renal): 0.957 µM
TGI (SNB-75 CNS): 1.08 µM
TGI (T-47D breast): 5.44 µM
TGI (UACC-257 melanoma): 2.99 µM

O=c1c(NO)c([N+](=O)[O-])cnn1-c1ccccc1
TGI (786-0 renal): 12.7 µM
TGI (DMS 114 small cell lung): 35.3 µM
TGI (DMS 273 small cell lung): 13.4 µM
TGI (EKVX NSCLC): 29.8 µM
TGI (KM20L2 colon): 18.3 µM
TGI (NCI-H460 lung): 13.1 µM
TGI (RPMI-8226 leukemia): 34 µM
TGI (RXF 393 renal): 12.3 µM
TGI (SNB-75 CNS): 28.4 µM
TGI (T-47D breast): 3.79 µM
TGI (UACC-257 melanoma): 13.4 µM

COC(=O)N/N=C(/CCC(=O)Nc1ccc(C)c(C)c1)CC(=O)C(C)(C)C
TGI (786-0 renal): > 100 µM
TGI (DMS 114 small cell lung): > 100 µM
TGI (DMS 273 small cell lung): > 100 µM
TGI (EKVX NSCLC): > 100 µM
TGI (KM20L2 colon): > 100 µM
TGI (NCI-H460 lung): > 100 µM
TGI (RPMI-8226 leukemia): > 100 µM
TGI (RXF 393 renal): > 100 µM
TGI (SNB-75 CNS): > 100 µM
TGI (UACC-257 melanoma): > 100 µM

CCOC(=O)c1oc2ccc([N+](=O)[O-])c3c2c1CCC3
TGI (786-0 renal): 84.9 µM
TGI (DMS 114 small cell lung): > 100 µM
TGI (DMS 273 small cell lung): > 100 µM
TGI (EKVX NSCLC): > 100 µM
TGI (KM20L2 colon): > 100 µM
TGI (NCI-H460 lung): > 100 µM
TGI (RPMI-8226 leukemia): > 100 µM
TGI (RXF 393 renal): 59.6 µM
TGI (SNB-75 CNS): 33.5 µM
TGI (T-47D breast): > 31.6 µM
TGI (UACC-257 melanoma): > 100 µM

CC12CO[C@@](C)(CC(S(=O)(=O)c3ccccc3)C1)O2 (stereo partly drawn)
TGI (786-0 renal): > 100 µM
TGI (DMS 114 small cell lung): > 100 µM
TGI (DMS 273 small cell lung): > 100 µM
TGI (EKVX NSCLC): > 100 µM
TGI (KM20L2 colon): > 100 µM
TGI (NCI-H460 lung): > 100 µM
TGI (RPMI-8226 leukemia): > 100 µM
TGI (RXF 393 renal): > 100 µM
TGI (SNB-75 CNS): > 100 µM
TGI (UACC-257 melanoma): > 100 µM

C/C(=N\N=C(\[Se])N(C)C)c1ccccn1
TGI (786-0 renal): 18.3 µM
TGI (DMS 114 small cell lung): < 0.01 µM
TGI (DMS 273 small cell lung): 5.29 µM
TGI (EKVX NSCLC): 11.6 µM
TGI (KM20L2 colon): 12.6 µM
TGI (NCI-H460 lung): 4.17 µM
TGI (RPMI-8226 leukemia): 53.2 µM
TGI (RXF 393 renal): 6.23 µM
TGI (SNB-75 CNS): 15.5 µM
TGI (T-47D breast): 32.3 µM
TGI (UACC-257 melanoma): 0.162 µM
